# Experimental data taken from patent US20230172930A1, “USE OF COMPLEMENT FACTOR D INHIBITORS ALONE OR IN COMBINATION WITH ANTI-C5 ANTIBODIES FOR TREATMENT OF PAROXYSMAL NOCTURNAL HEMOGLOBINURIA” (Alexion Pharmaceuticals, Inc., priority 2020, published 2023).
# Values joined by “and” are separate entries in the source; they are usually repeats but may differ in a detail not shown here. Equal values may be shown once.
# How the values were obtained:
# [1] = Phase 2 study: PNH clone size and C3 fragment deposition on erythrocytes by flow cytometry (anti-human C3d antibody); type: in vivo
# Procedure: (§1) FIGS. 4A-4D are graphs depicting the effect on complement biomarkers and PNH clone size. […] Arithmetic mean and standard derivation (SD) were shown for all but the clone size of C3d^+ PNH erythrocytes where geometric mean was used, and the range was shown at each time point. NHS, normal human serum; BL, baseline; LLN, lower limit normal; ULN, upper limit normal.
# (§2) Pharmacodynamics were determined by measuring serum AP activity with AP hemolysis assay. Serum CP activity, Plasma Bb concentration, serum FD, and C3 concentrations were also monitored. Complement tests were conducted by a central lab using commercial kits, with the exception of AP hemolysis assay which was conducted internally for exploratory purposes. At each AP hemolysis run, a single normal human serum sample was included in addition to the patient serum samples so hemolysis values of individual patient serum samples could be standardized to the hemolysis value of the normal human serum sample. Finally, PNH clone size and C3 fragment deposition on erythrocytes was measured using flow cytometry with FITC conjugated anti-human C3d antibody.
# [2] = tested on: PNH erythrocytes; assay: as above; type: in vivo
# Procedure: as §1, §2
# [3] = tested on: PNH patients with an inadequate response to eculizumab; assay: Phase 2 study: RBC transfusion needs (events, units, annualized rates); type: in vivo, human
# Procedure: Transfusion frequency and amount were evaluated via annualized rates and units, respectively. The average intensive rate of transfusion frequency before treatment was calculated by summing the number of transfusion events in the 52 weeks prior to Screening plus days from Screening to Day 1 of dosing from 10 patients and dividing this sum by the patients' total exposure times. The average intensive rate in the 24 weeks post-treatment was calculated with the same method. The ratio of these two intensive rates (post vs. pre) was used to quantify the treatment effect. Standard statistical analysis for comparing the two intensity rates (post- vs pre-treatment) was conducted.
# [4] = Phase 2 study: plasma danicopan pharmacokinetics (LC-MS/MS); type: in vivo, human
# From the text: The mean (% CV) Ctrough value was 105 (57) ng/mL during these intensive sampling days. Sampling at through times over the rest of the study duration under less controlled conditions yielded a mean (% CV) Ctrough value of 150 (59) ng/mL.
# [5] = tested on: PNH patients with an inadequate response to eculizumab; assay: Phase 2 study: safety and tolerability (TEAEs)
# From the text: After completing 24 weeks of treatment, patients entered a long-term extension.
# [6] = N=11, Baseline, before danicopan, on eculizumab
# [7] = Patient A, Baseline, before danicopan, on eculizumab 900 mg q14d
# [8] = Patient B, Baseline, before danicopan, on eculizumab 1200 mg q14d
# [9] = Patient C, Baseline, before danicopan, on eculizumab 900 mg q14d
# [10] = Patient C, Week 12, danicopan 150 mg TID + eculizumab 900 mg q14d
# [11] = Patient C, Week 24, danicopan 150 mg TID + eculizumab 900 mg q14d
# [12] = Patient D, Baseline, before danicopan, on eculizumab 900 mg q14d
# [13] = Patient D, Week 12, danicopan 150 mg TID + eculizumab 900 mg q14d
# [14] = Patient D, Week 24, danicopan 150 mg TID + eculizumab 900 mg q14d
# [15] = Patient E, Baseline, before danicopan, on eculizumab 1200 mg q14d
# [16] = Patient E, Week 12, danicopan 150 mg TID + eculizumab 1200 mg q14d
# [17] = Patient E, Week 24, danicopan 150 mg TID + eculizumab 1200 mg q14d
# [18] = Patient F, Baseline, before danicopan, on eculizumab 900 mg q14d
# [19] = Patient F, Week 12, danicopan 150 mg TID + eculizumab 900 mg q14d
# [20] = Patient F, Week 24, danicopan 150 mg TID + eculizumab 900 mg q14d
# [21] = Patient G, Baseline, before danicopan, on eculizumab 1500 mg q14d
# [22] = Patient G, Week 12, danicopan 100 mg TID + eculizumab 1500 mg q14d
# [23] = Patient G, Week 24, danicopan 100 mg TID + eculizumab 1500 mg q14d
# [24] = Patient H, Baseline, before danicopan, on eculizumab 900 mg q14d
# [25] = Patient H, Week 12, danicopan 200 mg TID + eculizumab 900 mg q14d
# [26] = Patient I, Baseline, before danicopan, on eculizumab 900 mg q14d
# [27] = Patient I, Week 12, danicopan 100 mg TID + eculizumab 900 mg q14d
# [28] = Patient J, Baseline, before danicopan, on eculizumab 1200 mg q14d
# [29] = Patient J, Week 12, danicopan 100 mg TID + eculizumab 1200 mg q14d
# [30] = Patient J, Week 24, danicopan 200 mg TID + eculizumab 1200 mg q14d
# [31] = Patient K, Baseline, before danicopan, on eculizumab 900 mg q14d
# [32] = Patient K, Week 12, danicopan 100 mg TID + eculizumab 900 mg q14d
# [33] = Patient K, Week 24, danicopan 150 mg TID + eculizumab 900 mg q14d
# [34] = pre-danicopan: 52-week history plus screening to Day 1, ten patients on eculizumab
structure (smiles),measurement,setting,value
"CC(=O)c1nn(CC(=O)N2C[C@H](F)C[C@H]2C(=O)Nc2cccc(Br)n2)c2ccc(-c3cnc(C)nc3)cc12 [Danicopan, danicopan]","clone size of PNH granulocytes, mean±SD",[1]; Week 24,95±7.2%
same,"clone size of PNH granulocytes, mean±SD",[1]; baseline,92±9.2%
same,"PNH RBC clone size, mean","[2]; N=7, Week 24, danicopan 100-200 mg TID + eculizumab",84±22.1% and 84%
same,"C3d^+ PNHRBCs, geometric mean",[2]; [6],22% and 22.2%
same,"PNH RBC clone size, mean",[2]; [6],54±24.9% and 54%
same,"C3d^+ PNHRBCs, geometric mean","[2]; N=11, Week 24, danicopan 100-200 mg TID + eculizumab",6.7% and 6.68%
same,C3d^+ PNHRBCs,[2]; [7],6.30%
same,PNH RBC clone size,[2]; [7],41%
same,PNH RBC clone size,"[2]; Patient A, Week 12, danicopan 150 mg TID + eculizumab 900 mg q14d",83%
same,C3d^+ PNHRBCs,"[2]; Patient A, Week 24, danicopan 150 mg TID + eculizumab 900 mg q14d",2.20%
same,C3d^+ PNHRBCs,[2]; [8],8.20%
same,PNH RBC clone size,[2]; [8],80%
same,PNH RBC clone size,"[2]; Patient B, Week 12, danicopan 100 mg TID + eculizumab 900 mg q14d",89%
same,C3d^+ PNHRBCs,"[2]; Patient B, Week 24, danicopan 100 mg TID + eculizumab 900 mg q14d",1.00%
same,C3d^+ PNHRBCs,[2]; [9],17.5%
same,PNH RBC clone size,[2]; [9],22%
same,C3d^+ PNHRBCs,[2]; [10],18.6%
same,PNH RBC clone size,[2]; [10],59%
same,C3d^+ PNHRBCs,[2]; [11],16.7%
same,PNH RBC clone size,[2]; [11],51%
same,C3d^+ PNHRBCs,[2]; [12],15.9%
same,PNH RBC clone size,[2]; [12],52%
same,C3d^+ PNHRBCs,[2]; [13],0.200%
same,PNH RBC clone size,[2]; [13],99%
same,C3d^+ PNHRBCs,[2]; [14],5.20%
same,PNH RBC clone size,[2]; [14],100%
same,C3d^+ PNHRBCs,[2]; [15],21.3%
same,PNH RBC clone size,[2]; [15],21%
same,C3d^+ PNHRBCs,[2]; [16],11.8%
same,PNH RBC clone size,[2]; [16],37%
same,C3d^+ PNHRBCs,[2]; [17],4.90%
same,PNH RBC clone size,[2]; [17],53%
same,C3d^+ PNHRBCs,[2]; [18],71.0%
same,PNH RBC clone size,[2]; [18],95%
same,C3d^+ PNHRBCs,[2]; [19],48.0%
same,PNH RBC clone size,[2]; [19],99%
same,C3d^+ PNHRBCs,[2]; [20],53.4%
same,PNH RBC clone size,[2]; [20],98%
same,C3d^+ PNHRBCs,[2]; [21],80.0%
same,PNH RBC clone size,[2]; [21],62.8%
same,C3d^+ PNHRBCs,[2]; [22],29.4%
same,PNH RBC clone size,[2]; [22],90.4%
same,C3d^+ PNHRBCs,[2]; [23],57.0%
same,PNH RBC clone size,[2]; [23],96.0%
same,C3d^+ PNHRBCs,[2]; [24],38.8%
same,PNH RBC clone size,[2]; [24],19%
same,C3d^+ PNHRBCs,[2]; [25],14.9%
same,PNH RBC clone size,[2]; [25],71%
same,C3d^+ PNHRBCs,"[2]; Patient H, Week 24, danicopan 200 mg TID + eculizumab 900 mg q14d",22.8%
same,C3d^+ PNHRBCs,[2]; [26],13.6%
same,PNH RBC clone size,[2]; [26],73%
same,C3d^+ PNHRBCs,[2]; [27],0.400%
same,PNH RBC clone size,[2]; [27],95%
same,C3d^+ PNHRBCs,"[2]; Patient I, Week 24, danicopan 200 mg TID + eculizumab 900 mg q14d",0.100%
same,C3d^+ PNHRBCs,[2]; [28],34.3%
same,PNH RBC clone size,[2]; [28],60%
same,C3d^+ PNHRBCs,[2]; [29],59.5%
same,PNH RBC clone size,[2]; [29],99%
same,C3d^+ PNHRBCs,[2]; [30],28.7%
same,PNH RBC clone size,[2]; [30],99%
same,C3d^+ PNHRBCs,[2]; [31],20.2%
same,PNH RBC clone size,[2]; [31],55%
same,C3d^+ PNHRBCs,[2]; [32],44.2%
same,PNH RBC clone size,[2]; [32],84%
same,C3d^+ PNHRBCs,[2]; [33],6.30%
same,PNH RBC clone size,[2]; [33],91%
same,reduction in transfusion frequency,[3]; post- vs. pre-danicopan,95.8%
same,average annualized rate of transfusion events,[3]; post-danicopan (24 weeks),0.217
same,average annualized transfusion units,[3]; post-danicopan (24 weeks),0.43
same,average annualized rate of transfusion events,[3]; pre-danicopan,5.234
same,average annualized transfusion units,[3]; pre-danicopan,9.27
same,transfusions administered,[3]; [34],57
same,units of packed red blood cells (PRBC),[3]; [34],101 units
same,units transfused,"[3]; since commencing danicopan through week 24, ten patients",2 units
same,"Ctrough, mean (% CV)","[4]; intensive sampling days, Week 7",105 (57) ng/mL
same,"Ctrough, mean (% CV)","[4]; trough sampling over the rest of the study, less controlled conditions",150 (59) ng/mL
same,discontinuations due to TEAEs,[5]; 11 patients completing treatment,no discontinuations due to TEAEs
same,Grade 3 direct bilirubin elevation with grade 1 ALT elevation,"[5]; Day 70, resolved by Day 77, attributed to breakthrough hemolysis",One patient experienced a Grade 3 direct bilirubin elevation
same,severe adverse event of pneumonia requiring hospitalization,"[5]; Day 145, recovered Day 152, relationship to study drug considered unlikely",The second patient experienced a severe adverse event of pneumonia
same,"Number of Patients Reporting a TEAE, %",[5]; N=11,(100) %
same,"Abdominal pain, %","[5]; TEAE, N=11",(18) %
same,"Contusion, %","[5]; TEAE, N=11",(18) %
same,"Cough, %","[5]; TEAE, N=11",(18) %
same,"Fatigue, %","[5]; TEAE, N=11",(18) %
same,"Headache, %","[5]; TEAE, N=11",(27) %
same,"Nasopharyngitis, %","[5]; TEAE, N=11",(18) %
same,"Nausea, %","[5]; TEAE, N=11",(18) %
same,"Oropharyngeal, %","[5]; TEAE, N=11",(18) %
same,"Pain in extremity, %","[5]; TEAE, N=11",(18) %
same,tolerability,"[5]; danicopan 100-200 mg TID + eculizumab, 24 weeks",generally well tolerated
same,discontinuation due to serious adverse event (worsening pulmonary hypertension/edema),"[5]; of twelve enrolled, considered unlikely related to danicopan",One discontinued after 2 doses
same,TEAEs mild to moderate in severity,[5]; share of treatment TEAEs,96%
